# Data from US7879876B2, “Sulfonamide derivatives and use thereof for the modulation of metalloproteinases” (Merck Serono SA, priority 2005, dated 2011).
# Where a name gives a salt, the structure may show the parent alone.
# What was measured:
# Assay type in all cases: biochemical
# MMP-14 = MMP-14 (Homo sapiens, UniProt P50281); assay: MMP-14 enzyme inhibition assay (coumarin-labelled peptide substrate); details: read-out: percentage inhibition MMP14
# Experimental: (§1) Compounds of the invention were tested to assess their activities as inhibitors of MMP-1, MMP-2, MMP-9, MMP-14, MMP-12 and TACE. MMP-9 Assay Protocol
# (§2) Compounds of the invention were tested for inhibitory activity against 92 kDa gelatinase (MMP-9) in an assay using a coumarin-labeled peptide substrate, (7-methoxycoumarin-4-yl)acetyl-Pro-Leu-Gly-Leu-(3-[2,4-dinitrophenyl]-L-2,3diaminopropionyl)-Ala-Arg-NH2 (McaPLGLDpaAR) (Knight et al, FEBS Lett. 1992; 263-266).
# (§3) Stock solutions were made up as follows: Assay Butter: 100 mM Tris-HCl pH 7.6 containing 100 mM NaCl, 10 mM CaCl2, and 0.05% Brij 35.
# (§4) Substrate: 0.4 mM McaPLGLDpaAR (from Bachem) (0.437 mg/ml) stock solution in 100% DMSO (stored at −20° C.). Dilute to 8 μM in assay butter.
# (§5) Enzyme: Recombinant human 92 kDa gelatinase (MMP-9; APMA (4-aminophenyl mercuric acetate)-activated if necessary) appropriately diluted in assay butter.
# (§6) Test Compounds were prepared initially as 10 mM compound solution in 100% DMSO, diluted to 1 mM in 100% DMSO, then serially diluted 3-fold in 100% DMSO across columns 1-10 of a 96-well microtitre plate Assay concentration range, 100 μM (column 1) to 5.1 nM (column 10).
# (§7) The assay was performed in a total volume of 100 μL per well in 96-well microtitre plates. Activated enzyme (20 μL) was added to the wells followed by 20 μL of assay butter. Appropriate concentrations of test compounds dissolved in 10 μL of DMSO were then added followed by 50 μL of McaPLGLDpaAR (8 μM, prepared by dilution of DMSO stock in assay butter). For each as say ten concentrations of test compound were examined in duplicate. Control wells lack either enzyme or test compound. The reactions were incubated at 37° C. for 2 hours. The fluorescence at 405 nm was measured immediately with an SLT Fluostar fluorometer (SL T Labinstruments GmbH, Grödig, Austria) using 320 nm excitation, without stopping the reaction.
# (§8) The effect of the test compound was determined from the dose response curve generated by the 10 duplicate concentrations of inhibitor. The IC50 (the concentration of compound required to give a 50% decrease in enzyme activity) was obtained by fitting data to the equation, Y=a+((b−a)/(1+(c/X)^d)). (Y=inhibition achieved for a particular dose; X=the dose in nM; a=minimum y or zero % inhibition; b=maximum y or 100% inhibition; c=is the IC50; d=is the slope). The result was rounded to one significant figure.
# (§9) Compounds of the invention were tested for inhibitory activity against MMP-14 in an assay using a coumarin-labelled peptide substrate, (7-methoxycoumarin-4-yl)acetyl-Pro-Leu-Gly-Leu-(3-[2,4-dinitrophenyl]-L-2,3diaminopropionyl)-Ala-Arg-NH2 (Mca PLGLD paAR) (Knight et al, 1992, above). The protocol for this assay was as described for the MMP-9 assay above.
# gelatinase A (MMP-2) = target: T1, gelatinase A (MMP-2) (Homo sapiens, UniProt P08253); assay: MMP-2 enzyme inhibition assay (coumarin-labelled peptide substrate); details: read-out: IC50 MMP2
# T1 sequence (P08253 110-660): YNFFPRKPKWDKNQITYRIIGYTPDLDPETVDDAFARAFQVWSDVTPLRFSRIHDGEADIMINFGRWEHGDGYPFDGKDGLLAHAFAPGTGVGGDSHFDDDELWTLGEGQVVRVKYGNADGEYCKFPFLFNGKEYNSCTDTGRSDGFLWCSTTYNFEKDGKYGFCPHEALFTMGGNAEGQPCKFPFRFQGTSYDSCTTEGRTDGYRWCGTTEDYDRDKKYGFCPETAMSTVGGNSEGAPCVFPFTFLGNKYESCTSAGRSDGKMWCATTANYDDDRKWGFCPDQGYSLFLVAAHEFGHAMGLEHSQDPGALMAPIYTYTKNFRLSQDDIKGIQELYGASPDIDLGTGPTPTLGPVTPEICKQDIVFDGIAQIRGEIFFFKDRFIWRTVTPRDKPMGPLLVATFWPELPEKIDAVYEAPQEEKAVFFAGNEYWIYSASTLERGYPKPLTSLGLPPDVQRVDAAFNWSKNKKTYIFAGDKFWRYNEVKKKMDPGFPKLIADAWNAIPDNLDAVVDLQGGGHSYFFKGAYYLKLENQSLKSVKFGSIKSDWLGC
# Experimental: Compounds of the invention were tested to assess their activities as inhibitors of MMP-1, MMP-2, MMP-9, MMP-14, MMP-12 and TACE. MMP-9 Assay Protocol […]
# as §3
# Substrate: 0.4 mM McaPLGLDpaAR (from Bachem) (0.437 mg/ml) stock solution in 100% DMSO (stored at −20° C.). Dilute to 8 μM in assay butter. […]
# as §6, §7, §8
# as §9, with “gelatinase A (MMP-2)” for “MMP-14”, “PLGLDpaAR)” for “PLGLD paAR)”
# [1] = target: 92 kDa gelatinase (MMP-9) (Homo sapiens, UniProt P14780); assay: MMP-9 enzyme inhibition assay (coumarin-labeled peptide substrate); details: read-out: IC50 MMP9
# Chain of 92 kDa gelatinase (MMP-9) (P14780 107-707 limits assumed): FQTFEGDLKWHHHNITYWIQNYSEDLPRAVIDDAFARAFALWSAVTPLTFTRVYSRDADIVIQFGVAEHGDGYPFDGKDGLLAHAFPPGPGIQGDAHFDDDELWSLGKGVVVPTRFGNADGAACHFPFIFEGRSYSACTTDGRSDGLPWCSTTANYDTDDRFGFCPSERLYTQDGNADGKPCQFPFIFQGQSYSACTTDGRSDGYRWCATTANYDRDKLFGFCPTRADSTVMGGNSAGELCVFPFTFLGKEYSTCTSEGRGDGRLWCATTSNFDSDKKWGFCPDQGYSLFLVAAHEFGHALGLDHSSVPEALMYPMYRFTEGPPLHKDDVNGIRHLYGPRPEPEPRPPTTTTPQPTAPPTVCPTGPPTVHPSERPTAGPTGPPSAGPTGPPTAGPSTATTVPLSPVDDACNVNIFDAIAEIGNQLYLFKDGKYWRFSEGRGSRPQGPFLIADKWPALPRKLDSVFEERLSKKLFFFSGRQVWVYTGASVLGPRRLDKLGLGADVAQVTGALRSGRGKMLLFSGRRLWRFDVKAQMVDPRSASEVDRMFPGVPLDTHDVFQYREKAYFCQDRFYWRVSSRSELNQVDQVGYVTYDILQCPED
# Experimental: as §1, §2, §3, §4, §5, §6, §7, §8
# metalloelastase (MMP-12) = metalloelastase (MMP-12) (Homo sapiens, UniProt P39900); assay: MMP-12 enzyme inhibition assay (coumarin-labelled peptide substrate); details: read-out: IC50 MMP12
# Chain of metalloelastase (MMP-12) (P39900 106-470): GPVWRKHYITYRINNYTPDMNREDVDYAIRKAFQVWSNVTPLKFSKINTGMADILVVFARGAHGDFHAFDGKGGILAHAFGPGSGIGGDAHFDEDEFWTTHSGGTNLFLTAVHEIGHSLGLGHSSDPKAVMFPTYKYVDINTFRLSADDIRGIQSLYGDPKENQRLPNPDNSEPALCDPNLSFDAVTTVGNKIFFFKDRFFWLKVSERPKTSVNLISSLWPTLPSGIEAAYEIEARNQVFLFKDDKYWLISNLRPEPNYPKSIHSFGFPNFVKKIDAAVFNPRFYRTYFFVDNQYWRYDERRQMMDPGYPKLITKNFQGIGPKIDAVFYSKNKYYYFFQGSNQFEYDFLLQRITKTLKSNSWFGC
# Experimental: as §1, §2, §3, §4, §5, §6, §7, §8
# Compounds of the invention were tested for inhibitory activity against metalloelastase (MMP-12) in an assay using a coumarin-labelled peptide substrate, (7-methoxycoumarin-4-yl)acetyl-Pro-Leu-Gly-Leu-(3-[2,4-dinitrophenyl]-L-2,3-diaminopropionyl)-Ala-Arg-NH2 (McaPLGLDpaAR) (Knight et al, 1992, above). The protocol for this assay was as described for the MMP-9 assay above.
# collagenase (MMP-1) = target: T2, collagenase (MMP-1) (Homo sapiens, UniProt P03956); assay: MMP-1 enzyme inhibition assay (coumarin-labelled peptide substrate); details: @ 5 μM; read-out: percentage inhibition MMP1
# T2 sequence (P03956 100-469): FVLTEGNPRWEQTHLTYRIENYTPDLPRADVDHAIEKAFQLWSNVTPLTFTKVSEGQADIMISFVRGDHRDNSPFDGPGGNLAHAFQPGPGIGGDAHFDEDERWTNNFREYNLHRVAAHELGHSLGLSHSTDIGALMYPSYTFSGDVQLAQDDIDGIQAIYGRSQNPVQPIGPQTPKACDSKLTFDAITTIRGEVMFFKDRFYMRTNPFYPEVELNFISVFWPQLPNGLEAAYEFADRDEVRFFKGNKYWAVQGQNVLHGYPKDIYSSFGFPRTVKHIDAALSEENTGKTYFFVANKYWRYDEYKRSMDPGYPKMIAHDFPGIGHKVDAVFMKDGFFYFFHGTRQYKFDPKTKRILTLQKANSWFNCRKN
# Experimental: as §1, §2, §3, §4, §5, §6, §7, §8
# as §9, with “collagenase (MMP-1)” for “MMP-14”, “PLGLDpaAR)” for “PLGLD paAR)”
# MMP13 = MMP13 (Homo sapiens, UniProt P45452); assay: MMP13 inhibition (Table 1); details: read-out: percentage inhibition MMP13
inhibition at 5 µM (MMP-14),IC50 (gelatinase A (MMP-2)),IC50 [1],IC50 (metalloelastase (MMP-12)),inhibition at 5 µM (collagenase (MMP-1)),inhibition at 0.1 µM (MMP13),inhibition at 5 µM (MMP13; @ 5 μM),inhibition at 0.1 µM (MMP-14; @ 0.1 μM),SMILES
,> 5000 nM,,234 nM,,,,,"CSCCC(CS(=O)(=O)N1CCc2ccc(C(C)(C)C)cc2C1)N(O)C=O (centres unmarked) [Example 54, N-[1-{[(7-tert-butyl-3,4-dihydroisoquinolin-2(1H)-yl)-sulfonyl]methyl}-3-(methylthio)propyl]-N-hydroxyformamide]"
,> 5000 nM,,111 nM,,,,,"CCOC(=O)C1CC1C(CS(=O)(=O)N1CCc2cc(OC)c(OC)cc2C1)N(O)C=O (centres unmarked) [Example 67, ethyl 2-[2-[(6,7-dimethoxy-3,4-dihydroisoquinolin-2(1H)-yl)sulfonyl]-1-[formyl(hydroxy)amino]ethyl]cyclopropanecarboxylate]"
,1330 nM,,109 nM,,,,,"CC(C)CC(CS(=O)(=O)N1CCc2ccc(OC(C)C)cc2C1)N(O)C=O (centres unmarked) [Example 51, N-hydroxy-N-(1-{[(7-isopropoxy-3,4-dihydroisoquinolin-2(1H)-yl)sulfonyl]methyl}-3-methylbutyl)formamide]"
,≥ 5000 nM,,460 nM,,,,19%,"CC(C)(C)OC(=O)N1CCC[C@@H]1[C@H](CS(=O)(=O)N1CCc2cc(Cl)c(Cl)cc2C1)N(O)C=O (racemic) [Example 46, tert-butyl (2RS)-2-{(1RS)-2-[(6,7-dichloro-3,4-dihydro-isoquinolin-2(1H)-yl)sulfonyl]-1-[formyl(hydroxy)amino]ethyl}pyrrolidine-1-carboxylate]"
,> 5000 nM,,209 nM,,,,,"CC(C)(C)c1ccc2c(c1)CN(S(=O)(=O)CC(C1CCOCC1)N(O)C=O)CC2 (centres unmarked) [Example 66, N-[2-[(7-tert-butyl-3,4-dihydroisoquinolin-2(1H)-yl)sulfonyl]-1-(tetrahydro-2H-pyran-4-yl)ethyl]-N-hydroxyformamide]"
,> 5000 nM,,322 nM,,,,,"CC(C)Oc1ccc2c(c1)CN(S(=O)(=O)CC(C1CCCC1)N(O)C=O)CC2 (centres unmarked) [Example 78, N-{1-cyclopentyl-2-[(7-isopropoxy-3,4-dihydroisoquinolin-2(1H)-yl)sulfonyl]ethyl}-N-hydroxyformamide]"
,> 5000 nM,,585 nM,,,,,"COc1cc2c(cc1OC)CN(S(=O)(=O)CC(C1CC1C(=O)O)N(O)C=O)CC2 (centres unmarked) [Example 71, 2-[2-[(6,7-dimethoxy-3,4-dihydroisoquinolin-2(1H)-yl)-sulfonyl]-1-[formyl(hydroxy)amino]ethyl]cyclopropanecarboxylic acid]"
,> 5000 nM,,366 nM,,,,,"COc1cc2c(cc1OC)CN(S(=O)(=O)CC(C1CC1)N(O)C=O)CC2 (centres unmarked) [Example 84, N-{1-cyclopropyl-2-[(6,7-dimethoxy-3,4-dihydro-isoquinolin-2(1H)-yl)sulfonyl]ethyl}-N-hydroxyformamide]"

# The next lines start with the molecule.
SMILES,inhibition at 5 µM (MMP-14),IC50 (gelatinase A (MMP-2)),IC50 [1],IC50 (metalloelastase (MMP-12)),inhibition at 5 µM (collagenase (MMP-1)),inhibition at 0.1 µM (MMP13),inhibition at 5 µM (MMP13; @ 5 μM),inhibition at 0.1 µM (MMP-14; @ 0.1 μM)
"O=CN(O)C(CS(=O)(=O)N1CCc2ccccc2C1)c1cccs1 (centres unmarked) [Example 5, N-[2-(3,4-dihydroisoquinolin-2(1H)-ylsulfonyl)-1-(2-thienyl)ethyl]-N-hydroxyformamide]",70%,759 nM,> 5000 nM,16 nM,32%,16%,97%,
"CCC(CC)C(CS(=O)(=O)N1CCc2cc(OC)c(OC)cc2C1)N(O)C=O (centres unmarked) [Example 17, N-(1-{[(6,7-dimethoxy-3,4-dihydroisoquinolin-2(1H)-yl)sulfonyl]methyl}-2-ethylbutyl)-N-hydroxyformamide]",0%,> 5000 nM,> 5000 nM,103 nM,0%,,,
"O=CN(O)C(CS(=O)(=O)N1CCc2ccccc2C1)c1ccsc1 (centres unmarked) [Example 7, N-[2-(3,4-dihydroisoquinolin-2(1H)-ylsulfonyl)-1-(3-thienyl)ethyl]-N-hydroxyformamide]",71%,784 nM,> 5000 nM,18 nM,31%,,,
"COc1cc2c(cc1OC)CN(S(=O)(=O)CC(N(O)C=O)C(C)(C)C)CC2 (centres unmarked) [Example 20, N-(1-{[(6,7-dimethoxy-3,4-dihydroisoquinolin-2(1H)-yl)sulfonyl]methyl}-2,2-dimethylpropyl)-N-hydroxyformamide]",0%,> 5000 nM,> 5000 nM,280 nM,0%,,,
"O=CN(O)C(CS(=O)(=O)N1CCc2ccccc2C1)c1cccnc1 (centres unmarked) [Example 11, N-[2-(3,4-dihydroisoquinolin-2(1H)-ylsulfonyl)-1-pyridin-3-ylethyl]-N-hydroxyformamide, hydrochloride salt]",,,> 5000 nM,26 nM,,15%,,
"COc1cc2c(cc1OC)CN(S(=O)(=O)CC(C1CCCC1)N(O)C=O)CC2 (centres unmarked) [Example 15, N-{1-cyclopentyl-2-[(6,7-dimethoxy-3,4-dihydroisoquinolin-2(1H)-yl)sulfonyl]ethyl}-N-hydroxyformamide]",0%,> 5000 nM,> 5000 nM,185 nM,0%,,,
